The text below walks through data of PMC12138827, “Molecular Modeling and In Vitro Evaluation of Thioureas and Arylthioureas as Urease Inhibitors” (ACS Omega, 2025).

Several values for one entry are separate records, joined by “and”; a condition that tells them apart may be missing. Equal values may be shown once. Entries after “also recorded” stand apart in the source; their conditions may differ. Read-outs that look alike come from different tables or passages of the source. Marks after values point to notes of the source that are not given here.

Data set [1] deals with T1, C. ensiformis urease (CEU) (Canavalia ensiformis, UniProt P07374).
T1 construct: purchased Merck (Sigma-Aldrich) Jack bean type III (CAS 9002-13-5)
Kind of data set: biochemical. Particulars: triplicate; for inhibition at 2000 µM: read-out: %I ± SD (inhibitory percentage against CEU), test substance at 2.00 mM; for %I ± SD (inhibitory percentage against CEU): test substance at 2.00 mM; for IC50: 0.2-2.0 mM. As to the method: The in vitro inhibitory activity of C. ensiformis urease was conducted using the indophenol reaction, also known as the Berthlot Reaction. Commercially purchased urease from Merck (Sigma-Aldrich), Jack bean type III (CAS 9002–13–5), was utilized, and the methodology was adapted from Khan et al. (2017).
(§1) The assays were performed in triplicate on a 96-well plate, as described by our research group. , The procedure involved adding 100 μL of urea (10 mM), 55.0 μL of sodium phosphate buffer solution (100 mM, pH 7.4) supplemented with EDTA (1 mM), and 10 μL of the test substance at 2.00 mM for inhibition percentage assays, previously dissolved in methanol. Subsequently, 25.0 μL of urease enzyme solution (0.0035 mM) was added, and the reaction mixture was incubated at 45–50 °C for 30 min. After incubation, 40.0 μL of phenol reagent (1% phenol and 0.05% sodium nitroprusside) and 40.0 μL of alkaline reagent (1.0% NaOH and […]) were added. The reaction rested for 15 min, and the absorbance was read at 630 nm using a Loccus model LMR-96i UV–visible microplate reader.
Thiourea (2.00 mM) served as the standard inhibitor.
To determine half of the maximum inhibitory concentration (IC50), substances LaSMMed 42, LaSMMed 122–126, and the thiourea control were tested at different concentrations (0.2, 0.4, 0.8, 1.0, 1.4, and 2.0 mM). The IC50 values were calculated using GraphPad Prism 8.0.2, employing a dose–response curve.

Data set [2] concerns the target T1, C. ensiformis urease (CEU). Kind of data set: Enzyme kinetics on C. ensiformis urease (Michaelis–Menten, Lineweaver–Burk plots). In kind it is biochemical. Particulars: for Vmax: CEU kinetic parameter with the compound; for Ki: Lineweaver–Burk, compound 0.50 and 0.25 mM; for Alfa (α): mixed inhibitors; for Inhibition type (mechanism of action): Lineweaver–Burk plots. The protocol:
Enzyme kinetics were studied following previous work by our research group. , The same reaction mixture was applied to determine inhibitory activity, and the IC50 was adopted to study enzyme kinetics in C. ensiformis urease. However, only two concentrations of the test substance were used (0.50 and 0.25 mM), along with five different concentrations of urea substrate (0.66, 1.00, 1.50, 2.00, and 2.50 mM) for each sample. The absorbance of the reaction mixture was recorded at 630 nm using a Loccus model LMR-96i UV–visible microplate reader. Michaelis–Menten (nonlinear regression) and Lineweaver–Burk (linear regression) plots, as well as the determination of inhibition constants (K i ), K m, α, and V max, were made using GraphPad Prism software (version 8.0.2). Enzymatic activity was calculated using an ammonium chloride calibration curve. One unit of enzymatic activity (U) is the amount of enzyme capable of releasing 1 μmol of ammonia per minute of reaction (U = 1 μmol NH4 ^+ min^–1 μmol enzyme^–1). The assays were performed in triplicate.

Data set [3] can be described thus: Solubility under the urease assay conditions. In kind it is physicochemical. The settings on record: urease assay medium. As to the method: as §1

T1 sequence (P07374 whole entry, looked up): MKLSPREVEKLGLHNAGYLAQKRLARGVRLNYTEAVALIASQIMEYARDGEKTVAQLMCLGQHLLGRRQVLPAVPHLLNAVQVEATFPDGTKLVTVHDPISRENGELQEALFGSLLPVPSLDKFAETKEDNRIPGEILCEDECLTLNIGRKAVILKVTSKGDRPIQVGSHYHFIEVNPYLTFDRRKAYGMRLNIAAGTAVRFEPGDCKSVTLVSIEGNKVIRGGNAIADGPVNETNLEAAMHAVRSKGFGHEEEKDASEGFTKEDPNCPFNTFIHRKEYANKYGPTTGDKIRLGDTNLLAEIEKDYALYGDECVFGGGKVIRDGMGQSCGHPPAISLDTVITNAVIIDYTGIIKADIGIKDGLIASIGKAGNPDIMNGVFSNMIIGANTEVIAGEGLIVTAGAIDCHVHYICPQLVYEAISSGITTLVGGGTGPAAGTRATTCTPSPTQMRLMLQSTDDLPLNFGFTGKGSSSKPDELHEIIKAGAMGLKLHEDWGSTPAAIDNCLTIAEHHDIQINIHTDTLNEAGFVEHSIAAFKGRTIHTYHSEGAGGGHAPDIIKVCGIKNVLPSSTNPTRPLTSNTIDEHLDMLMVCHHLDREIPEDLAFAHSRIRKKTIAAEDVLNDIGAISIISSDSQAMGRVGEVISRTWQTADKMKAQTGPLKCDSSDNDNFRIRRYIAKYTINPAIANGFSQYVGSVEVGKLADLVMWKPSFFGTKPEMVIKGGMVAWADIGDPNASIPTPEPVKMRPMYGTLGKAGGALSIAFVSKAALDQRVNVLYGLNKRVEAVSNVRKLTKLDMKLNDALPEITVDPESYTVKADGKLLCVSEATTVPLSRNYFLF

For the molecule `O=C(/C=C/c1ccccc1)NC(=S)Nc1ccc(F)cc1` [LaSMMed 45], in data set [1], the inhibition at 2000 µM came out at 24% and the “%I ± SD (inhibitory percentage against CEU)” value is 23.98 ± 1.44^e %.
In general, Vmax refers to the top rate of the reaction or transport when substrate is in excess. As a reminder, the Ki is a dissociation constant, usually derived from enzyme kinetics or from competition with a known ligand. The low end stands for tighter binding, the high end for weaker binding. By IC50 is commonly meant the concentration that inhibits the measured activity by half. In the case of `NC(=S)Nc1ccc(Br)cc1` [LaSMMed 123], in data set [2], the Vmax was found to be 741.30 µmol/min, the inhibition constant Ki came out at 110 µM and the “Alfa (α)” value amounted to 9.75. In data set [1] (IC50 ± SD), this molecule showed an IC50 of 493 ± 7 µM. Moreover, the inhibition at 2000 µM in data set [1] is 86.18 ± 0.75%.
As for `CCCCCCNC(=S)NC(=O)/C=C/c1ccccc1` [compound 40], the inhibition at 2000 µM in data set [1] was in the range of 30 to 40%.
Regarding `Cc1ccc(NC(=S)NC(=O)/C=C/c2ccccc2)cc1` [LaSMMed 46], the “%I ± SD (inhibitory percentage against CEU)” value in data set [1] is recorded as 13.04 ± 2.46^f %.
In the case of `NC(N)=S` [Thiourea], in data set [1] (read-out: IC50 ± SD), the half-maximal inhibitory concentration (IC50) is 504 ± 25 µM. The figures for the “%I ± SD (inhibitory percentage against CEU)” value in data set [1] and in data set [1] (listed as thiourea) were 84.12 ± 0.84^d % and 84%, respectively.
As for `NC(=S)NC(=O)/C=C/c1ccccc1` [LaSMMed 42], in data set [1], the inhibition at 2000 µM worked out at 82% and the “%I ± SD (inhibitory percentage against CEU)” value is listed as 82.37 ± 0.34^d %.
Turning to `CNC(=S)NC(=O)/C=C/c1ccccc1` [LaSMMed 37], in data set [1], the inhibition at 2000 µM was 30 to 40% and the “%I ± SD (inhibitory percentage against CEU)” value was 33.53 ± 1.06^c %.
For the molecule `CCCCCCNC(=S)NC(=O)/C=C/c1ccccc1` [LaSMMed 40], the “%I ± SD (inhibitory percentage against CEU)” value in data set [1] was 39.34 ± 1.72^c %.
As for `COc1ccc(NC(=S)NC(=O)/C=C/c2ccccc2)cc1` [LaSMMed 44], the “Solubility under the tested conditions” value in data set [3] is “insoluble”.
Regarding `Cc1ccc(NC(N)=S)cc1` [LaSMMed 126], in data set [2], the maximum rate (Vmax) was found to be 732.30 µmol/min, the inhibition constant Ki is 100 µM, the “Inhibition type (mechanism of action)” value was “mixed-type inhibition” and the “Alfa (α)” value is given as 4.88. Also, half-maximal inhibition in data set [1] (IC50 ± SD) (IC50) required 568 ± 22 µM. Also, in data set [1], the inhibition at 2000 µM is 87.86 ± 0.48%.
Turning to `Cc1ccc(NC(N)=S)cc1` [compound 126], the Ki in data set [2] was about 100 µM. In data set [1] (IC50 ± SD), this molecule yielded a concentration for half-maximal inhibition (IC50) of about 575 µM.
Take `NC(=S)Nc1ccc([N+](=O)[O-])cc1` [LaSMMed 124]: in data set [2], the Vmax turned out to be 733.50 µmol/min, the Ki was 130 µM and the “Alfa (α)” value was 6.13. Inhibition in data set [1] (IC50 ± SD) was half-maximal at 464 ± 3 µM (IC50). Moreover, the inhibition at 2000 µM in data set [1] was found to be 88.3 ± 0.26%.
With `COc1ccc(NC(N)=S)cc1` [LaSMMed 125], in data set [2], the Vmax turned out to be 737.50 µmol/min, affinity was put at a Ki of 80 µM and the “Inhibition type (mechanism of action)” value is reported as “competitive inhibition; also recorded: competitive inhibitor”. In data set [1] (IC50 ± SD), the IC50 was found to be 510 ± 19 µM. Also, in data set [1], the inhibition at 2000 µM was 84% and the “%I ± SD (inhibitory percentage against CEU)” value is listed as 84.56 ± 1.23^b %.
Consider `NC(=S)Nc1ccc([N+](=O)[O-])cc1` [compound 124], for which the inhibition constant (Ki) in data set [2] is about 100 µM.
Take `NC(=S)Nc1ccc(Cl)cc1` [LaSMMed 122]: in data set [2], the Vmax amounted to 735.50 µmol/min; the Ki is 90 µM and 89 µM; the “Alfa (α)” value is given as 6.00. Also, in data set [1] (IC50 ± SD), the 50% inhibitory concentration (IC50) was ~575 µM and 575 µM. Further, the inhibition at 2000 µM in data set [1] came to 87.6 ± 1.72%.
As for `Cc1ccc(NC(=S)NC(=O)/C=C/c2ccccc2)cc1` [compound 46], in data set [1], the inhibition at 2000 µM amounted to 13%.
